From patent publication US20260109699A1, “AZOLE DERIVATIVES AS SHP2 INHIBITORS” (IRBM S.P.A., priority 2022, published 2026) come the findings set out here.

Assay [1] has as its target T1, SHP-2 enzyme (Met1-Leu525), SHP2wt (Homo sapiens, UniProt Q06124).
T1 construct: synthetized by Origene, Met1-Leu525, cat #TP750155; purchased Origene TP750155
T1 sequence (Q06124 1-525): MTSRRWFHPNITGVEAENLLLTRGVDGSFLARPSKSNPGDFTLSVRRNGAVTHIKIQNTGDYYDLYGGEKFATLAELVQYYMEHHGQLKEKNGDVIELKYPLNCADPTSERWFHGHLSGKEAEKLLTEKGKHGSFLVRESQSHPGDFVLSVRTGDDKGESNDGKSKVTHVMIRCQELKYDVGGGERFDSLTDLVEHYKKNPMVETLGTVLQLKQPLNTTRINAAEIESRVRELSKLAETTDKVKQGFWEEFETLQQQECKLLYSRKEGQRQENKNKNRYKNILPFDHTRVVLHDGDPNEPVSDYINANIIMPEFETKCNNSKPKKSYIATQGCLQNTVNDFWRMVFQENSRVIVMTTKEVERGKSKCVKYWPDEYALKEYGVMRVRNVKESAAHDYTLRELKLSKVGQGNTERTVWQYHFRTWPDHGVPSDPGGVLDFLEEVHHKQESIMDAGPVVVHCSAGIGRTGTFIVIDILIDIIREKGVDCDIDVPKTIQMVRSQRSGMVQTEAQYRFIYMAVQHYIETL
The assay is described as follows: SHP2 inhibition enzymatic assay. In kind it is biochemical. Particulars: 0.5 nM SHP-2 activated by 500 nM IRS1 peptide, 75 μM DiFMUP substrate. How it is done: The assay was performed as described in YP Chen et al, Nature (535) 2016. Assay volume of 20 μL/well was assembled in 384 well black polystyrene low-binding microplates (Greiner), using the following buffer: 60 mM HEPES pH 7.2, 75 mM NaCl, 75 mM KCl, 1 mM EDTA pH 8, 0.05% tween-20, 5 mM DTT. The SHP-2 enzyme (synthetized by Origene, Met1-Leu525, cat #TP750155) was used at a final concentration of 0.5 nM. The enzyme was activated by 500 nM IRS1 peptide (sequence: H2N-LN(pY)IDLDLV(dPEG8)LST(pY)ASINFQK-amide; Wang et al., iScience 25,104009, Apr. 15, 2022, https://doi.org/10.1016/j.isci.2022.104009) and incubated with 75 μM DiFMUP (Sigma) as substrate.
Briefly, DMSO serially diluted testing compounds were transferred to the bottom of the assay plate. SHP2 was then added together with the IRS1 peptide 30 min post incubation, the DiFMUP substrate was added to the reaction and incubated 30 min at rt. Finally 5 μL of 160 μM bpV (potassium bisperoxo[1,10-phenanthroline]oxovanadate [V], Sigma) were added to stop and quench the reaction. The fluorescence was detected by a microplate reader (Envision, PerkinElmer) according to the DiFMUP excitation and emission wavelength. The lower the fluorescence the higher the SHP2 inhibition.
The activity of each compound dilution was calculated as percentage of inhibition between vehicle (DMSO, 0% inhibition) and no enzyme (100% inhibition). The percentage inhibition is fitted against the compound dilutions with a four-parameter logistic regression. The inflection point (i.e. the concentration at which half-maximal inhibition is achieved) is the IC50.
Legend: A indicates IC50 less or equal to 0.05 μM; B indicates IC50 greater than 0.05 μM and lower or equal to 0.3 μM.

For assay [2], the system named is phospho-ERK1/2 (Thr202/Tyr204). The assay is described as follows: Phospho-ERK cellular assay. It is filed as cell-based. To be noted: Homo sapiens; KYSE-520 cells, 2 h at 37° C, TR-FRET; read-out: pERK IC50. As to the method:
ERK phosphorylation was detected using the “Advanced phospho-ERK1/2 (Thr202/Tyr204)” TR-FRET kit (Cisbio, Cat #64AERPEG/H), following the manufacturer reagents and instructions.
Briefly, 20.000/well KYSE-520 cells (DSMZ ACC 371) were plated in 6 μL RPMI-1640 (Invitrogen) growth medium, into 384 white low-volume high base TC microplates (Greiner). After an overnight incubation, cells were treated with DMSO serial diluted compounds and incubated for 2 h at 37° C. After incubation, 2 μL/well of 4×Lysis Buffer (Cisbio 64KL1FDF), were added and incubated with cells for 30 min on gentle shaking. Finally, lysates were added with 2 μL/well of Eu cryptate (donor) and D2 (acceptor) conjugated antibodies (as provided by the Cisbio kit #64AERPEG/H) diluted 1:100 in Detection Buffer (as provided by the Cisbio kit #64AERPEG/H). Plates were then sealed and incubated at rt in the dark. After an overnight incubation, the TR-FRET signal was detected on a suitable reader (Envision, PerkinElmer).
The lower the TR-FRET signal the higher the higher the SHP2 inhibition in cells.
The activity of each compound dilution was calculated as percentage between vehicle DMSO treated cells and no cells, 0% inhibition and 100% inhibition respectively. The percentage activity is fitted against the compound dilutions with a four-parameter logistic regression. The inflection point (i.e. the concentration at which half-maximal inhibition is achieved) is the IC50.
Legend: “+” indicates IC50 equal or higher than 0.5 μM; “++” indicates IC50 less than 0.5 μM and higher or equal to 0.1 μM; “+++” indicates IC50 less than 0.1 μM.
In general terms: Time-resolved FRET reads energy transfer from a long-lived donor to a nearby acceptor.

As a reminder, the IC50 is the concentration that gives 50% inhibition. Consider `Cc1c(Cl)cccc1Sc1cnc(N2CCC3(CC2)Cn2nccc2[C@H]3N)cn1` [Example 33, (S)-1-(5-((3-chloro-2-methylphenyl)thio)pyrazin-2-yl)-4′H,6′H-spiro[piperidine-4,5′-pyrrolo[1,2-b]pyrazol]-4′-amine], for which the results for the IC50 in assay [1] and in assay [2] were at most 50 nM and below 100 nM, respectively.

Turning to `N[C@@H]1c2ccnn2CC12CCN(c1cnc(Sc3cc(F)cc(F)c3)cn1)CC2` [Example 50, (S)-1-(5-((3,5-difluorophenyl)thio)pyrazin-2-yl)-4′H,6′H-spiro[piperidine-4,5′-pyrrolo[1,2-b]pyrazol]-4′-amine], the IC50 is at most 50 nM in assay [1] and below 100 nM in assay [2].

For `Cn1cnc2ccc(Sc3cnc(N4CCC5(CC4)Cn4nccc4[C@H]5N)cn3)cc21` [Example 65, (S)-1-(5-((1-methyl-1H-benzo[d]imidazol-6-yl)thio)pyrazin-2-yl)-4′H,6′H-spiro[piperidine-4,5′-pyrrolo[1,2-b]pyrazol]-4′-amine], the IC50 in assay [1] was at most 50 nM; in assay [2], below 100 nM.

In the case of `N[C@@H]1c2ccnn2CC12CCN(c1cnc(Sc3ccc(C(F)F)cc3F)cn1)CC2` [Example 59, (S)-1-(5-((4-(difluoromethyl)-2-fluorophenyl)thio)pyrazin-2-yl)-4′H,6′H-spiro[piperidine-4,5′-pyrrolo[1,2-b]pyrazol]-4′-amine], the results for the IC50 in assay [1] and in assay [2] were at most 50 nM and 100 to 500 nM, respectively.

Take `Cc1cccc(Sc2cnc(N3CCC4(CC3)Cn3nccc3[C@H]4N)cn2)c1Cl` [Example 35, (S)-1-(5-((2-chloro-3-methylphenyl)thio)pyrazin-2-yl)-4′H,6′H-spiro[piperidine-4,5′-pyrrolo[1,2-b]pyrazol]-4′-amine]: the figures for the IC50 in assay [1] and in assay [2] were at most 50 nM and below 100 nM, respectively.

Regarding `N[C@@H]1c2ccnn2CC12CCN(c1cnc(Sc3cc(F)c(F)cc3F)cn1)CC2` [Example 77, (S)-1-(5-((2,4,5-trifluorophenyl)thio)pyrazin-2-yl)-4′H,6′H-spiro[piperidine-4,5′-pyrrolo[1,2-b]pyrazol]-4′-amine], the IC50 was at most 50 nM in assay [1] and 100 to 500 nM in assay [2].

In the case of `N[C@@H]1c2ccnn2CC12CCN(c1cnc(Sc3ccc(Cl)c(Cl)c3)cn1)CC2` [Example 23, (S)-1-(5-((3,4-dichlorophenyl)thio)pyrazin-2-yl)-4′H,6′H-spiro[piperidine-4,5′-pyrrolo[1,2-b]pyrazol]-4′-amine], the values for the IC50 in assay [1] and in assay [2] were at most 50 nM and 100 to 500 nM, respectively.

With `N[C@@H]1c2ccnn2CC12CCN(c1cnc(Sc3ccc(F)c4ncccc34)cn1)CC2` [Example 68, (S)-1-(5-((8-fluoroquinolin-5-yl)thio)pyrazin-2-yl)-4′H,6′H-spiro[piperidine-4,5′-pyrrolo[1,2-b]pyrazol]-4′-amine], the IC50 in assay [1] was at most 50 nM; in assay [2], below 100 nM.

On to `N[C@@H]1c2ccnn2CC12CCN(c1cnc(Sc3cccc(-n4cccn4)c3F)cn1)CC2` [Example 81, (S)-1-(5-((2-fluoro-3-(1H-pyrazol-1-yl)phenyl)thio)pyrazin-2-yl)-4′H,6′H-spiro[piperidine-4,5′-pyrrolo[1,2-b]pyrazol]-4′-amine], for which the IC50 in assay [1] is at most 50 nM; in assay [2] it was below 100 nM.

Turning to `N[C@@H]1c2ccnn2CC12CCN(c1cnc(Sc3cccc4c3COC4)cn1)CC2` [Example 52, (S)-1-(5-((1,3-dihydroisobenzofuran-4-yl)thio)pyrazin-2-yl)-4′H,6′H-spiro[piperidine-4,5′-pyrrolo[1,2-b]pyrazol]-4′-amine], the IC50 was at most 50 nM in assay [1] and below 100 nM in assay [2].

On to `N[C@@H]1c2ccnn2CC12CCN(c1cnc(Sc3c(F)cccc3F)cn1)CC2` [Example 75, (S)-1-(5-((2,6-difluorophenyl)thio)pyrazin-2-yl)-4′H,6′H-spiro[piperidine-4,5′-pyrrolo[1,2-b]pyrazol]-4′-amine], for which the IC50 was at most 50 nM in assay [1] and below 100 nM in assay [2].

As for `N[C@@H]1c2ccnn2CC12CCN(c1cnc(Sc3cc(F)ccc3F)cn1)CC2` [Example 48, (S)-1-(5-((2,5-difluorophenyl)thio)pyrazin-2-yl)-4′H,6′H-spiro[piperidine-4,5′-pyrrolo[1,2-b]pyrazol]-4′-amine], the IC50 in assay [1] was at most 50 nM; in assay [2] it was below 100 nM.

On to `N[C@@H]1c2ccnn2CC12CCN(c1cnc(Sc3ccccc3Cl)cn1)CC2` [Example 63, (S)-1-(5-((2-chlorophenyl)thio)pyrazin-2-yl)-4′H,6′H-spiro[piperidine-4,5′-pyrrolo[1,2-b]pyrazol]-4′-amine], for which the values for the IC50 in assay [1] and in assay [2] were at most 50 nM and below 100 nM, respectively.

In the case of `N[C@@H]1c2ccnn2CC12CCN(c1cnc(Sc3ccccc3C(F)(F)F)cn1)CC2` [Example 41, (S)-1-(5-((2-(trifluoromethyl)phenyl)thio)pyrazin-2-yl)-4′H,6′H-spiro[piperidine-4,5′-pyrrolo[1,2-b]pyrazol]-4′-amine], the results for the IC50 in assay [1] and in assay [2] were at most 50 nM and below 100 nM, respectively.

With `N[C@@H]1c2cccn2CC12CCN(c1cnc(Sc3cccc(Cl)c3Cl)cn1)CC2` [Example 28, (S)-1-(5-((2,3-dichlorophenyl)thio)pyrazin-2-yl)-1′H,3′H-spiro[piperidine-4,2′-pyrrolizin]-1′-amine], the IC50 is at most 50 nM in assay [1] and below 100 nM in assay [2].

On to `N[C@@H]1c2ccnn2CC12CCN(c1cnc(Sc3ccnc(C(F)(F)F)c3Cl)cn1)CC2` [Example 54, (S)-1-(5-((3-chloro-2-(trifluoromethyl)pyridin-4-yl)thio)pyrazin-2-yl)-4′H,6′H-spiro[piperidine-4,5′-pyrrolo[1,2-b]pyrazol]-4′-amine], for which the results for the IC50 in assay [1] and in assay [2] were at most 50 nM and below 100 nM, respectively.

For the compound `COc1ccc(Sc2cnc(N3CCC4(CC3)Cn3nccc3[C@H]4N)cn2)c(F)c1` [Example 64, (S)-1-(5-((2-fluoro-4-methoxyphenyl)thio)pyrazin-2-yl)-4′H,6′H-spiro[piperidine-4,5′-pyrrolo[1,2-b]pyrazol]-4′-amine], the half-maximal inhibitory concentration (IC50) is at most 50 nM in assay [1] and below 100 nM in assay [2].

For `N#Cc1ccc(Sc2cnc(N3CCC4(CC3)Cn3nccc3[C@H]4N)cn2)c(F)c1` [Example 76, (S)-4-((5-(4′-amino-4′H,6′H-spiro[piperidine-4,5′-pyrrolo[1,2-b]pyrazol]-1-yl)pyrazin-2-yl)thio)-3-fluorobenzonitrile], the IC50 in assay [1] was at most 50 nM; in assay [2], below 100 nM.

Take `N[C@@H]1c2ccnn2CC12CCN(c1cnc(Sc3ccc(Cl)cc3Cl)cn1)CC2` [Example 22, (S)-1-(5-((2,4-dichlorophenyl)thio)pyrazin-2-yl)-4′H,6′H-spiro[piperidine-4,5′-pyrrolo[1,2-b]pyrazol]-4′-amine]: the values for the IC50 in assay [1] and in assay [2] were at most 50 nM and below 100 nM, respectively.
